According to patent publication US9452986B2, “6-heteroaryloxy- or 6-aryloxy-quinoline-2-carboxamides and method of use” (AbbVie Inc., priority 2014, dated 2016):

molecular target: recombinant human Nav1.7 (Homo sapiens (Human), UniProt Q15858); assay: FRET-based membrane potential assay, recombinant human sodium channel Nav1.7; format: cell-based; conditions: HEK293 cells stably expressing recombinant human Nav1.7; veratridine + scorpion venom depolarization; read-out: FRET-Membrane Potential Nav1.7 IC50
Procedure, shortened: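 Channel activation used veratridine at its EC80, set by a dilution curve each experiment, together with Leiurus scorpion venom, added 3 min after compound. Membrane-potential ratio signals from FLIPR Tetra in HEPES-buffered HBSS were fitted to a four-parameter Hill equation for percent inhibition and IC50.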

recombinant human Nav1.7, sequence (Q15858 whole entry): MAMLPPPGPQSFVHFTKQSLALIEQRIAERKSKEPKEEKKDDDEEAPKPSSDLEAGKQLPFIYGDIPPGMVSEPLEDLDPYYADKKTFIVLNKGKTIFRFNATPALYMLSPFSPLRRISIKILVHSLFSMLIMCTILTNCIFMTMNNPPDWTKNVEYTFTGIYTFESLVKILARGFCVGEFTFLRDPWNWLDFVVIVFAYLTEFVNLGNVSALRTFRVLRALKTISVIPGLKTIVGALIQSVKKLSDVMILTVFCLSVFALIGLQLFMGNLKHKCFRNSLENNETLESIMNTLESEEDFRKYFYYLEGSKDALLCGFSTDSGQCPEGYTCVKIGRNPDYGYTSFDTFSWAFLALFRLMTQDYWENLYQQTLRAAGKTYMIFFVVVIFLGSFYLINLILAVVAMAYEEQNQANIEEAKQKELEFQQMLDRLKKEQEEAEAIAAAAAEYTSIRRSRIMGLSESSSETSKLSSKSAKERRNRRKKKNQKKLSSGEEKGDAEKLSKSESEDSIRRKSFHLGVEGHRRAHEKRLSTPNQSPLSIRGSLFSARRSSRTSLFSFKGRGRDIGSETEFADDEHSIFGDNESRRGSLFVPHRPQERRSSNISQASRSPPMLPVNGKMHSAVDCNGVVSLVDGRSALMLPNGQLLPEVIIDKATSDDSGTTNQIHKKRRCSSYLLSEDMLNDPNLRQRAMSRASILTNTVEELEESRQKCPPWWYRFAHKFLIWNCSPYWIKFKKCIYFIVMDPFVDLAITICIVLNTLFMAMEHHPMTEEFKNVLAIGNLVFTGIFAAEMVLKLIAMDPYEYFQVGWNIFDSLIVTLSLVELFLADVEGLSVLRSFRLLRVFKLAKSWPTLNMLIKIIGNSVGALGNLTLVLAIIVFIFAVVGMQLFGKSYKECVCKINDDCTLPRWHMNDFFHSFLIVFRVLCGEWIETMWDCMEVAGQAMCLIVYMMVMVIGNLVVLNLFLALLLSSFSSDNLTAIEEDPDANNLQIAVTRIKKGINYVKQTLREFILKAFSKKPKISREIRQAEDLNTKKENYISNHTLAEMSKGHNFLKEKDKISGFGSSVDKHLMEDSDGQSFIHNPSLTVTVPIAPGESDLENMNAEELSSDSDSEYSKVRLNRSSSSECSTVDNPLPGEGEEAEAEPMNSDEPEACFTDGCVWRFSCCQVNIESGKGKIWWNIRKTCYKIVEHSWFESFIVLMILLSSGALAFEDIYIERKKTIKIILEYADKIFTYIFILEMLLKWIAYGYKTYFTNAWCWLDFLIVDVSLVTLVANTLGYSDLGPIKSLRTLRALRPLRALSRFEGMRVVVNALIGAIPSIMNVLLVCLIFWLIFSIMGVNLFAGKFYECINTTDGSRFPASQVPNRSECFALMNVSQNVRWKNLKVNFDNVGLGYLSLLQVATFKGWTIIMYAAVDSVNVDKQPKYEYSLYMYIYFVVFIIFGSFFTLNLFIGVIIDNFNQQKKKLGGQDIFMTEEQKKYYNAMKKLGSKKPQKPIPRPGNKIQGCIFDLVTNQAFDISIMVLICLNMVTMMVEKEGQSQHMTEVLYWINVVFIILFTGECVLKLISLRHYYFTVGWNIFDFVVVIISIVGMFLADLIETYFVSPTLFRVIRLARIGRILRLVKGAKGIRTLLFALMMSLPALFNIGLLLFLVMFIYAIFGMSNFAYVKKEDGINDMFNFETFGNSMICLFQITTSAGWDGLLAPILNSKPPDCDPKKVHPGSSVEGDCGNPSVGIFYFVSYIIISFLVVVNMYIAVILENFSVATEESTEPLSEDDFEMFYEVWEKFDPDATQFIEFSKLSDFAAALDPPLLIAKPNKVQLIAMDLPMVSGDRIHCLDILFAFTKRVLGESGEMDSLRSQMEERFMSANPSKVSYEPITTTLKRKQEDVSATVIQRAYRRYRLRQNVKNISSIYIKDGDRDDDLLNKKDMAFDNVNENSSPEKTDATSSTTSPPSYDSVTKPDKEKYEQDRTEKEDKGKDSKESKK

Row | SMILES | IC50
1 | CC(=O)Nc1ncc(S(=O)(=O)N2CCN(C(=O)c3ccc4cc(Oc5ccc(C(F)(F)F)cn5)ccc4n3)CC2)s1 [Example 389, N-[5-({4-[(6-{[5-(trifluoromethyl)pyridin-2-yl]oxy}quinolin-2-yl)carbonyl]piperazin-1-yl}sulfonyl)-1,3-thiazol-2-yl]acetamide] | 9220 nM
2 | Cc1c(S(=O)(=O)N2CCN(C(=O)c3ccc4cc(Oc5ccc(C(F)(F)F)cn5)ccc4n3)CC2)cnn1C [Example 390, {4-[(1,5-dimethyl-1H-pyrazol-4-yl)sulfonyl]piperazin-1-yl}(6-{[5-(trifluoromethyl)pyridin-2-yl]oxy}quinolin-2-yl)methanone] | 2340 nM
3 | O=C(NC[C@@H]1CCCO1)c1ccc2cc(Oc3ccc(C(F)(F)F)cn3)ccc2n1 [Example 394, N-[(2S)-tetrahydrofuran-2-ylmethyl]-6-{[5-(trifluoromethyl)pyridin-2-yl]oxy}quinoline-2-carboxamide] | 443 nM
4 | COC1CN(C(=O)c2ccc3cc(Oc4ccc(C(F)(F)F)cn4)ccc3n2)C1 [Example 396, (3-methoxyazetidin-1-yl)(6-{[5-(trifluoromethyl)pyridin-2-yl]oxy}quinolin-2-yl)methanone] | 1940 nM
5 | CO[C@H]1C[C@H](NC(=O)c2ccc3cc(Oc4ccc(C(F)(F)F)cn4)ccc3n2)C1 [Example 397, N-(trans-3-methoxycyclobutyl)-6-{[5-(trifluoromethyl)pyridin-2-yl]oxy}quinoline-2-carboxamide] | 896 nM
6 | CN(C(=O)c1ccc2cc(Oc3ccc(C(F)(F)F)cn3)ccc2n1)C1CS(=O)(=O)CC1O (stereo not drawn) [Example 398, N-(4-hydroxy-1,1-dioxidotetrahydrothiophen-3-yl)-N-methyl-6-{[5-(trifluoromethyl)pyridin-2-yl]oxy}quinoline-2-carboxamide] | 6110 nM
7 | O=C(NC1COC1)c1ccc2cc(Oc3ccc(C(F)(F)F)cn3)ccc2n1 [Example 399, N-(oxetan-3-yl)-6-{[5-(trifluoromethyl)pyridin-2-yl]oxy}quinoline-2-carboxamide] | 375 nM
8 | O=C(NC1CCSCC1)c1ccc2cc(Oc3ccc(C(F)(F)F)cn3)ccc2n1 [Example 400, N-(tetrahydro-2H-thiopyran-4-yl)-6-{[5-(trifluoromethyl)pyridin-2-yl]oxy}quinoline-2-carboxamide] | 1220 nM
9 | O=C(N[C@H]1CCC[C@H]1O)c1ccc2cc(Oc3ccc(C(F)(F)F)cn3)ccc2n1 [Example 401, N-[(1S,2R)-2-hydroxycyclopentyl]-6-{[5-(trifluoromethyl)pyridin-2-yl]oxy}quinoline-2-carboxamide] | 400 nM
10 | NC(=O)C1CN(C(=O)c2ccc3cc(Oc4ccc(C(F)(F)F)cn4)ccc3n2)CCN1 (stereo not drawn) [Example 402, 4-[(6-{[5-(trifluoromethyl)pyridin-2-yl]oxy}quinolin-2-yl)carbonyl]piperazine-2-carboxamide] | 9070 nM
11 | NC1CCN(C(=O)c2ccc3cc(Oc4ccc(C(F)(F)F)cn4)ccc3n2)CC1 [Example 403, (4-aminopiperidin-1-yl)(6-{[5-(trifluoromethyl)pyridin-2-yl]oxy}quinolin-2-yl)methanone] | 9670 nM
12 | O=C(c1ccc2cc(Oc3ccc(C(F)(F)F)cn3)ccc2n1)N1CCC(F)(F)C1 [Example 404, (3,3-difluoropyrrolidin-1-yl)(6-{[5-(trifluoromethyl)pyridin-2-yl]oxy}quinolin-2-yl)methanone] | 1950 nM
13 | CC1(C)CCN(C(=O)c2ccc3cc(Oc4ccc(C(F)(F)F)cn4)ccc3n2)C1 [Example 405, (3,3-dimethylpyrrolidin-1-yl)(6-{[5-(trifluoromethyl)pyridin-2-yl]oxy}quinolin-2-yl)methanone] | 1400 nM
14 | O=C(c1ccc2cc(Oc3ccc(C(F)(F)F)cn3)ccc2n1)N1CCNCC(F)C1 (stereo not drawn) [Example 406, (6-fluoro-1,4-diazepan-1-yl)(6-{[5-(trifluoromethyl)pyridin-2-yl]oxy}quinolin-2-yl)methanone] | 1060 nM
15 | O=C(c1ccc2cc(Oc3ccc(C(F)(F)F)cn3)ccc2n1)N1CCNCC(O)C1 (stereo not drawn) [Example 407, (6-hydroxy-1,4-diazepan-1-yl)(6-{[5-(trifluoromethyl)pyridin-2-yl]oxy}quinolin-2-yl)methanone] | 3810 nM
16 | CS(=O)(=O)NC1CCN(C(=O)c2ccc3cc(Oc4ccc(C(F)(F)F)cn4)ccc3n2)CC1 [Example 408, N-{1-[(6-{[5-(trifluoromethyl)pyridin-2-yl]oxy}quinolin-2-yl)carbonyl]piperidin-4-yl}methanesulfonamide] | > 20000 nM
17 | O=C(NC[C@H]1CCCO1)c1ccc2cc(Oc3ccc(C(F)(F)F)cn3)ccc2n1 [Example 409, N-[(2R)-tetrahydrofuran-2-ylmethyl]-6-{[5-(trifluoromethyl)pyridin-2-yl]oxy}quinoline-2-carboxamide] | 403 nM
18 | CN(C(=O)c1ccc2cc(Oc3ccc(C(F)(F)F)cn3)ccc2n1)C1CCOCC1 [Example 411, N-methyl-N-(tetrahydro-2H-pyran-4-yl)-6-{[5-(trifluoromethyl)pyridin-2-yl]oxy}quinoline-2-carboxamide] | 14100 nM
19 | CN(C)C(=O)CN(C)C(=O)c1ccc2cc(Oc3ccc(C(F)(F)F)cn3)ccc2n1 [Example 413, N-[2-(dimethylamino)-2-oxoethyl]-N-methyl-6-{[5-(trifluoromethyl)pyridin-2-yl]oxy}quinoline-2-carboxamide] | 12400 nM
20 | O=C(c1ccc2cc(Oc3ccc(C(F)(F)F)cn3)ccc2n1)N1CCC(C(F)(F)F)C1 (stereo not drawn) [Example 414, (6-{[5-(trifluoromethyl)pyridin-2-yl]oxy}quinolin-2-yl)[3-(trifluoromethyl)pyrrolidin-1-yl]methanone] | 5020 nM
21 | O=C(c1ccc2cc(Oc3ccc(C(F)(F)F)cn3)ccc2n1)N1CC(F)C(F)C1 (stereo not drawn) [Example 415, (3,4-difluoropyrrolidin-1-yl)(6-{[5-(trifluoromethyl)pyridin-2-yl]oxy}quinolin-2-yl)methanone] | 1610 nM
22 | O=C1CCC(NC(=O)c2ccc3cc(Oc4ccc(C(F)(F)F)cn4)ccc3n2)CN1 (stereo not drawn) [Example 416, N-(6-oxopiperidin-3-yl)-6-{[5-(trifluoromethyl)pyridin-2-yl]oxy}quinoline-2-carboxamide] | 700 nM
23 | O=C(c1ccc2cc(Oc3ccc(C(F)(F)F)cn3)ccc2n1)N1CCNC2(CCC2)C1 [Example 418, 5,8-diazaspiro[3.5]non-8-yl(6-{[5-(trifluoromethyl)pyridin-2-yl]oxy}quinolin-2-yl)methanone] | 539 nM
24 | CN(C(=O)c1ccc2cc(Oc3ccc(C(F)(F)F)cn3)ccc2n1)C1CCS(=O)(=O)C1 (stereo not drawn) [Example 419, N-(1,1-dioxidotetrahydrothiophen-3-yl)-N-methyl-6-{[5-(trifluoromethyl)pyridin-2-yl]oxy}quinoline-2-carboxamide] | 11900 nM
25 | O=C(NC1CCSC1)c1ccc2cc(Oc3ccc(C(F)(F)F)cn3)ccc2n1 (stereo not drawn) [Example 420, N-(tetrahydrothiophen-3-yl)-6-{[5-(trifluoromethyl)pyridin-2-yl]oxy}quinoline-2-carboxamide] | 2430 nM
26 | O=C(NCCN1CCNC1=O)c1ccc2cc(Oc3ccc(C(F)(F)F)cn3)ccc2n1 [Example 421, N-[2-(2-oxoimidazolidin-1-yl)ethyl]-6-{[5-(trifluoromethyl)pyridin-2-yl]oxy}quinoline-2-carboxamide] | 1060 nM
27 | O=C(NCCNc1ccccn1)c1ccc2cc(Oc3ccc(C(F)(F)F)cn3)ccc2n1 [Example 422, N-[2-(pyridin-2-ylamino)ethyl]-6-{[5-(trifluoromethyl)pyridin-2-yl]oxy}quinoline-2-carboxamide] | 617 nM
28 | O=C(NCCn1ccnc1)c1ccc2cc(Oc3ccc(C(F)(F)F)cn3)ccc2n1 [Example 423, N-[2-(1H-imidazol-1-yl)ethyl]-6-{[5-(trifluoromethyl)pyridin-2-yl]oxy}quinoline-2-carboxamide] | 830 nM
29 | CC1(O)CC(NC(=O)c2ccc3cc(Oc4ccc(C(F)(F)F)cn4)ccc3n2)C1 (stereo not drawn) [Example 426, N-(3-hydroxy-3-methylcyclobutyl)-6-{[5-(trifluoromethyl)pyridin-2-yl]oxy}quinoline-2-carboxamide] | 972 nM
30 | COCCOC1CN(C(=O)c2ccc3cc(Oc4ccc(C(F)(F)F)cn4)ccc3n2)C1 [Example 427, [3-(2-methoxyethoxy)azetidin-1-yl](6-{[5-(trifluoromethyl)pyridin-2-yl]oxy}quinolin-2-yl)methanone] | > 20000 nM

same assay, conditions: read-out: FRET-Membrane Potential Nav1.7 IC50

Row | SMILES | IC50
31 | COCCN(C)C(=O)c1ccc2cc(Oc3ccc(C(F)(F)F)cn3)ccc2n1 [Example 392, N-(2-methoxyethyl)-N-methyl-6-{[5-(trifluoromethyl)pyridin-2-yl]oxy}quinoline-2-carboxamide] | 7960 nM
32 | O=C(c1ccc2cc(Oc3ccc(C(F)(F)F)cn3)ccc2n1)N1C[C@H](O)C[C@@H](O)C1 [Example 395, [(3R,5R)-3,5-dihydroxypiperidin-1-yl](6-{[5-(trifluoromethyl)pyridin-2-yl]oxy}quinolin-2-yl)methanone] | > 20000 nM
33 | C[C@H](O)CNC(=O)c1ccc2cc(Oc3ccc(C(F)(F)F)cn3)ccc2n1 [Example 410, N-[(2S)-2-hydroxypropyl]-6-{[5-(trifluoromethyl)pyridin-2-yl]oxy}quinoline-2-carboxamide] | 557 nM
34 | O=C(NCC1(O)COC1)c1ccc2cc(Oc3ccc(C(F)(F)F)cn3)ccc2n1 [Example 412, N-[(3-hydroxyoxetan-3-yl)methyl]-6-{[5-(trifluoromethyl)pyridin-2-yl]oxy}quinoline-2-carboxamide] | 513 nM
35 | O=C(NCC1CCN1)c1ccc2cc(Oc3ccc(C(F)(F)F)cn3)ccc2n1 (stereo not drawn) [Example 424, N-(azetidin-2-ylmethyl)-6-{[5-(trifluoromethyl)pyridin-2-yl]oxy}quinoline-2-carboxamide] | 1310 nM
36 | O=C(N[C@H]1CS(=O)(=O)C[C@@H]1O)c1ccc2cc(Oc3ccc(C(F)(F)F)cn3)ccc2n1 [Example 425, N-[(3R,4R)-4-hydroxy-1,1-dioxidotetrahydrothiophen-3-yl]-6-{[5-(trifluoromethyl)pyridin-2-yl]oxy}quinoline-2-carboxamide] | 9090 nM
